Laboratory results taken from US20060084597A2, “USE OF COMPOUNDS HAVING GIP ACTIVITY FOR THE TREATMENT OF DISORDERS ASSOCIATED WITH ABNORMAL LOSS OF CELLS AND/OR FOR THE TREATMENT OF OBESITY” (Eisai Co., Ltd., priority 2002, published 2006).

Assays:
[1] = system: adult hippocampal progenitor cells; test: CyQUANT cell proliferation assay (DNA content); type: cell-based, rat; conditions: for cells in a well at the end of the experiment: around 6 x 10^3 cells seeded, control well without FGF around 1.5 x 10^5
Description: Proliferation assay. Hippocampal progenitor cells were seeded at 0.2 x 10^4 cells/cm^2 on 24-well plates in culture medium containing human FGF-2 (20ng/ml) and left to grow for 48 h. After a further 48 h of growth without FGF-2, cells were incubated with porcine GIP at different concentrations (Sigma), FGF-2 alone or a combination of both GIP (1 nM) and FGF-2 for 48 h. Cell proliferation assay was performed using the CyQUANT Cell Proliferation Kit (Molecular Probes, Eugene, OR) and a GENios microplate reader (TECAN Austria GmbH, Grödig, Austria) according to the instructions of the manufacturer.

[2] = system: adult hippocampal progenitor cells; test: methyl-[3H]-thymidine incorporation assay; type: cell-based, rat; conditions: 24 h, n = 12
Description: Thymidin-assay. Hippocampal progenitor cells were seeded at 0.5 x 10^4 cells/cm^2 on 48-well plates in culture medium and left to grow for 48 h. The cells were then labeled with methyl-[^3H]-thymidine and incubated with GIP (1 nM) or FGF-2 (20ng/ml) for 24 h. Cells were lysed in 0.4 M NaOH, transferred to scint vials, mixed with 0.4 M HCl and assayed for DNA synthesis by scintillation spectrometry. The mean for each experiment was calculated from four different culture wells and each experiment was performed 12 times.

[3] = system: adult hippocampal progenitor cells; test: Apop-Tag staining for apoptotic or dead cells; type: cell-based, rat; conditions: control 3.31 + 0.67%
Description: Apop-Tag. Hippocampal progenitor cells were seeded at 1 x 10^4 cells/cm^2 on glass coverslips and treated the same way as for the proliferation assay and incubated with GIP (1 nM) or FGF-2 (20 ng/ml). Cells were fixed and stained for apoptosis according to the Apop Tag kit user manual (Apop Tag S160 direct, Intergene Company, Purchase, NY, USA). A negative control without TdT-enzyme was included and positive controls with addition of H2O2 (100 µM and 1 mM) and DNase I (1 µg/ml) was included. In the last washing step the cells were incubated with the nuclear dye bisBenzimide (Hoechst 33258, Sigma) for 30 min. Apoptotic or dead cells were identified by green fluorescence in the nuclei and Hoechst nuclear dye was used to discriminate total number of cells. Three coverslips per experiment was stained from four different experiments. Positive cells was quantified by scoring the immunoreactivity of 1000–3000 cells systematically observed in 6 nonoverlapping fields in each coverslip.

[4] = system: adult hippocampal progenitor cells; test: LDH release from dying cells; type: cell-based, rat; conditions: GIP 1 nM or FGF-2 20 ng/ml
Description: LDH-activity. Release of lactate dehydrogenase (LDH) from dying cells was measured using a routine photometric method (Dept. of Clinical Chemistry, Sahlgrenska University Hospital, Sweden). Cell culture medium was collected from culture wells seeded for the Apop Tag staining (see above). . The mean for each experiment was calculated from three different culture wells and each experiment was performed 4 times. The coefficient of variation for the assay was 1.7 % and the assay standard curve was linear for enzyme activities between 0.1–20 µkat/ dm^3.

[5] = system: hippocampal progenitor cells in adult rat DG; test: Intracerebroventricular GIP infusion, BrdU-positive cell count in granule cell layer of dentate gyrus; type: in vivo; conditions: adult male SD rats, i.c.v. 1.92 nmol/day for 5 days
Description: Intracerebroventricular GIP infusion. Adult male SD rats (260-280 g; B&K Universal, Sweden) were intubated and ventilated with isoflurane in an O2/N2O mix (30:70). An infusion cannula connected to an osmotic pump (Alzet brain infusion kit II and Alzet 2001 osmotic pump, Alza Scientific Products, Palo Alto, CA) was placed in the 3rd cerebral ventricle (0.3 mm posterior from Bregma along the midline, 5 mm below skull surface). Each rat was infused (1 µl/hr) for 5 days with either GIP (1.92 nmol/day; n = 5) or vehicle (0.1 M PBS; n = 6) and sacrificed the last day. All animals received a single daily intraperitoneal injection of Bromodeoxyuridine (BrdU; 50 mg/kg of body weight; Boehringer Mannheim; Scandinavia AB, Bromma, Sweden).
Immunohistochemistry and cellcounting. Brains were sectioned and stained for BrdU using a primary mouse BrdU antibody (1:400, Boeringer Mannheim) and biotinylated horse anti-mouse IgG (1:125) secondary antibodies (Vector Laboratories, Burlingame, CA) as previously described^11. For each animal, the total number of BrdU-positive cells in the granule cell layer, including the subgranular layer, and their corresponding sample volume were determined in 12 immunoperoxidase-stained, 40-µm-thick coronal sections taken 240 µm apart. […] Results are expressed as BrdU-positive cells per sample volume.
Statistics. […] All values are expressed as the means ± SEM.

[6] = Effect on weight gain after intraventricular infusion in the brain; type: in vivo, rat; conditions: male Sprague-Dawley rats, 1.92 nmol/day intraventricularly, 5 days
Description: Rats (male Sprague-Dawley) were given either GIP (6 rats, 1.92 nmol/day) or phosphate buffered saline (PBS) as control-solution (7 rats), intraventricularly in the brain by osmotic mini-pumps. The rats were given substance during five days, and then sacrificed.
The weight of each rat was recorded and the total weight gain during the five days calculated.

Substance	increase in cell proliferation relative to control ([1]; FGF-2 20 ng/ml alone, 48 h, n = 4)	cells in a well at the end of the experiment [1]	increase in thymidin incorporation compared to control ([2]; FGF-2 20 ng/ml)	cell death ([3]; FGF-2 20 ng/ml)	extracellular level of released LDH compared with controls [4]	proliferative effect ([1]; GIP 0.1 pM, 48 h)	proliferative effect compared with FGF-2 ([1]; GIP 1 nM vs FGF-2 20 ng/ml)	increase in cell proliferation relative to control ([1]; GIP 1 nM, 48 h, n = 8)	rate of cell proliferation, dose-dependent ([1]; GIP doses from 1 pM to 0.1 µM, 48 h)	increase in thymidin incorporation compared to control ([2]; GIP 1 nM)	cell death compared with control ([3]; GIP 1 nM)	number of BrdU+ cells in the granule cell layer ([5]; n = 5, PBS 14986 ± 1831)	increase in BrdU-positive cells versus PBS-treated animals ([5]; p < 0.05)	weight gain as % of the weight gain seen in the PBS treated rats [6]	total weight gain during the five days ([6]; PBS 28.5g)
FGF-2: human fibroblast growth factor-2, a well-documented proliferative agent of these cells [reference compound]	112.3 ± 20%	~3 x 10^5 cells	60.1 ± 7.1%	0.96 + 0.21%	no statistical difference										
GIP: 42 amino acid gastric inhibitory polypeptide; porcine GIP (Sigma) used in the cell assays (YAEGTFISDYSIAMDKIRQQDFVNWLLAQKGKKSDWKHNITQ; Gastric inhibitory polypeptide synthetic; UniProt P01281 1-42, looked up)		~2.5 x 10^5 cells			no statistical difference	absent	slightly more than half	74.5 ± 14.4%	significant increases	32.4 ± 3.3%	not statistically different	27969 ± 5795 cells/mm^3	86%	63%	17.9 g
